Tests used:
mu opiate receptor (MOR) = target: T1, mu opiate receptor (MOR) (Rattus norvegicus, UniProt P33535); assay: [35S]GTPγS binding assay using striatal membranes (MOR agonist activity); type: biochemical; design: MOR agonist activity, [35S]GTPγS binding to Gαo, 0.1 μM / MOR agonist activity, [35S]GTPγS binding to Gαo, 1 μM / MOR agonist activity, [35S]GTPγS binding to Gαo, 1 μM + BFNA: reference not given here; conditions: for MOR agonist activity, [35S]GTPγS binding to Gαo, 0.1 μM: 0.1 μM compound; for MOR agonist activity, [35S]GTPγS binding to Gαo, 0.1 μM / MOR agonist activity, [35S]GTPγS binding to Gαo, 1 μM: striatal membranes; for MOR agonist activity, [35S]GTPγS binding to Gαo, 1 μM + BFNA: 1 μM compound + 1 μM β-funaltrexamine; for MOR agonist activity, [35S]GTPγS binding to Gαo, 1 μM: 1 μM compound
T1 construct: from tissue; host or cells: striatal tissue (membrane preparation)
T1 sequence (P33535 whole entry): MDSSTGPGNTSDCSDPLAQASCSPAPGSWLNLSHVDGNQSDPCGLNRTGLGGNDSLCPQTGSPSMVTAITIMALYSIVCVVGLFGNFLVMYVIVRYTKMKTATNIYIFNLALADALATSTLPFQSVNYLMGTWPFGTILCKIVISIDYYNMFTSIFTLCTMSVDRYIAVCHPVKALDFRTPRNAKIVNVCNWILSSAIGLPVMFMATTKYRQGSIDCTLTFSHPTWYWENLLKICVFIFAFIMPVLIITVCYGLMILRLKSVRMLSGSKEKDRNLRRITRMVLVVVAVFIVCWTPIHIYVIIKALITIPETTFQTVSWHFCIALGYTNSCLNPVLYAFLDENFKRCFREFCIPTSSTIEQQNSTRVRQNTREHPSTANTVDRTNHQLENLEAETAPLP
Protocol: To assess the mu opiate receptor (MOR) agonist activity of positive compounds from the FLNA screening, compounds were tested in a [^35S]GTPγS binding assay using striatal membranes. Our previous study has shown that in striatal membranes, activation of MOR leads to an increase in [^35S]GTPγS binding to Gαo (Wang et al., 2005 Neuroscience 135:247-261).
Striatal tissue was homogenized in 10 volumes of ice cold 25 mM HEPES buffer, pH 7.4, which contained 1 mM EGTA, 100 mM sucrose, 50 μg/ml leupeptin, 0.04 mM PMSF, 2 μg/ml soybean trypsin inhibitor and 0.2% 2-mercaptoethanol. The homogenates were centrifuged at 800×g for 5 minutes and the supernatants were centrifuged at 49,000×g for 20 minutes. The resulting pellets were suspended in 10 volume of reaction buffer, which contained 25 mM HEPES, pH 7.5, 100 mM NaCl, 50 μg/ml leupeptin, 2 μg/ml soybean trypsin inhibitor, 0.04 mM PMSF and 0.02% […].
The resultant striatal membrane preparation (200 μg) was admixed and maintained (incubated) at 30° C. for 5 minutes in reaction buffer as above that additionally contained 1 mM MgCl2 and 0.5 nM [^35S]GTPγS (0.1 μCi/assay, PerkinElmer Life and Analytical Sciences) in a total volume of 250 μl and continued for 5 minutes in the absence or presence of 0.1-10 μM of an assayed compound of interest. The reaction was terminated by dilution with 750 μl of ice-cold reaction buffer that contained 20 mM MgCl2 and 1 mM EGTA and immediate centrifugation at 16,000×g for 5 minutes.
The resulting pellet was solubilized by sonicating for 10 seconds in 0.5 ml of immunoprecipitation buffer containing 0.5% digitonin, 0.2% sodium cholate and 0.5% NP-40. Normal rabbit serum (1 μl) was added to 1 ml of lysate and incubated at 25° C. for 30 minutes. Nonspecific immune complexes were removed by incubation with 25 μl of protein A/G-conjugated agarose beads at 25° C. for 30 minutes followed by centrifugation at 5,000×g at 4° C. for 5 minutes. The supernatant was divided and separately incubated at 25° C. for 30 minutes with antibodies raised against Gαo proteins (1:1,000 dilutions).
The immunocomplexes so formed were collected by incubation at 25° C. for 30 minutes with 40 μl of agarose-conjugated protein A/G beads and centrifugation at 5,000×g at 4° C. for 5 minutes. The pellet was washed and suspended in buffer containing 50 mM Tris-HCl, pH 8.0, and 1% NP-40. The radioactivity in the suspension was determined by liquid scintillation spectrometry. […] DAMGO (H-Tyr-D-Ala-Gly-N-MePhe-Gly-OH; 1 or 10 μM) was used as a positive control.

[1] = target: Bn-VAKGL pentapeptide of filamin A (FLNA) (Homo sapiens, UniProt P21333); assay: FITC-NLX-based FLNA screening assay (FLNA peptide binding assay); conditions: 10 nM FITC-NLX
Protocol: The final assay volume is 100 μl.
Compounds are tested in triplicate or quadruplicate.

| SMILES | MOR agonist activity, [35S]GTPγS binding to Gαo, 0.1 μM (mu opiate receptor (MOR)) [%] | MOR agonist activity, [35S]GTPγS binding to Gαo, 1 μM + BFNA (mu opiate receptor (MOR)) [%] | MOR agonist activity, [35S]GTPγS binding to Gαo, 1 μM (mu opiate receptor (MOR)) [%] | inhibition at 0.01 µM ([1]; read-out: Percent inhibition of FITC-NLX binding, 0.01 μM compound) [%] | inhibition at 0.1 µM ([1]; read-out: Percent inhibition of FITC-NLX binding, 0.1 μM compound) [%] | inhibition at 1 µM ([1]; read-out: Percent inhibition of FITC-NLX binding, 1 μM compound) [%] | Percent inhibition of FITC-NLX binding, 0.01 μM ([1]; 0.01 μM compound) [%] | Percent inhibition of FITC-NLX binding, 0.1 μM ([1]; 0.1 μM compound) [%] | Percent inhibition of FITC-NLX binding, 1 μM ([1]; 1 μM compound) [%] | % DAMGO + BFNA (mu opiate receptor (MOR); 1 μM + BFNA, relative to DAMGO + BFNA) [%] |
| --- | --- | --- | --- | --- | --- | --- | --- | --- | --- | --- |
| COc1c2c(cc3c1C(CC(O)Cc1ccccc1C)N(C)CC3)OCO2 (stereo not shown) [B0054] | 157.8 | 111.0 | 186.7 | 25.6 | 32.6 | 43.3 |  |  |  |  |
| CCOc1ccc(C(=O)CC2c3c(cc4c(c3OC)OCO4)CC[N+]2(C)C)cc1F (stereo not shown) [B0020] | 51.6 | 24.9 | 181.6 |  |  |  | 38.1 | 45.5 | 50.6 |  |
| COc1ccccc1CCC(=O)CC1c2c(cc3c(c2OC)OCO3)CC[N+]1(C)C (stereo not shown) [B0045] | 129.3 | 83.8 | 193.1 |  |  |  | 63.2 | 68.2 | 73.9 |  |
| COc1c2c(cc3c1C(CC(=O)Cc1ccccc1Cl)[N+](C)(C)CC3)OCO2.[I-] (stereo not shown) [B0039] | 171.8 | 78.3 | 290.5 |  |  |  | 43.3 | 45.7 | 50.9 |  |
| COc1cc(C(=O)CC2c3c(cc4c(c3OC)OCO4)CC[N+]2(C)C)cc(OC)c1OC (stereo not shown) [B0037] | 119.8 | 106.2 | 186.0 |  |  |  | 47.4 | 53.0 | 52.4 |  |
| COc1ccc(C(=O)CC2c3c(cc4c(c3OC)OCO4)CC[N+]2(C)C)cc1C.[I-] (stereo not shown) [B0021] | 126.9 | 42.9 | 256.4 |  |  |  | 32.5 | 43.1 | 47.6 |  |
| COc1cccc(CCC(=O)CC2c3c(cc4c(c3OC)OCO4)CC[N+]2(C)C)c1 (stereo not shown) [B0034] | 122.5 | 41.8 | 235.2 |  |  |  | 49.1 | 54.2 | 59.1 |  |
| COc1ccc(CCC(=O)CC2c3c(cc4c(c3OC)OCO4)CC[N+]2(C)C)cc1 (stereo not shown) [B0016] | 167.7 | 72.2 | 213.6 |  |  |  |  |  |  |  |
| COc1c2c(cc3c1C(CC(=O)Cc1ccccc1C)[N+](C)(C)CC3)OCO2 (stereo not shown) [B0031] | 210.8 | 28.8 | 272.0 |  |  |  | 36.2 | 44.2 | 50.5 |  |
| COc1c2c(cc3c1C(CC(=O)Cc1ccccc1C)N(C)CC3)OCO2 (stereo not shown) [B0053] | 160.2 | 134.3 | 299.8 |  |  |  |  |  |  |  |
| COc1c2c(cc3c1C(CC(=O)CCc1ccc(F)cc1)[N+](C)(C)CC3)OCO2 (stereo not shown) [B0018] | 118.8 | 45.6 | 143.0 |  |  |  | 37.2 | 43.7 | 47.6 |  |
| COc1c2c(cc3c1C(CC(=O)c1cccc(C(F)(F)F)c1)[N+](C)(C)CC3)OCO2 (stereo not shown) [B0006] | 77.0 | 18.6 | 131.3 |  |  |  |  |  |  |  |
| COc1c2c(cc3c1C(CC(=O)CCc1ccc(O)cc1)[N+](C)(C)CC3)OCO2.[I-] (stereo not shown) [B0028] | 199.1 | 55.0 | 357.7 |  |  |  | 38.2 | 42.8 | 49.1 |  |
| COc1c2c(cc3c1C(CC(=O)c1ccc(N4CCOCC4)cc1)[N+](C)(C)CC3)OCO2 (stereo not shown) [B0004] | 170.3 | 72.0 | 231.7 |  |  |  |  |  |  | 110.0 |
| COc1c2c(cc3c1C(CC(=O)Cc1ccccc1F)[N+](C)(C)CC3)OCO2.[I-] (stereo not shown) [B0055] | 162.1 | 117.5 | 338.5 |  |  |  |  |  |  |  |
| COc1cc(F)ccc1C(=O)CC1c2c(cc3c(c2OC)OCO3)CC[N+]1(C)C (stereo not shown) [B0007] | 168.3 | 64.5 | 223.3 |  |  |  |  |  |  |  |
| COc1c2c(cc3c1C(CC(=O)c1ccc(C#N)cc1)[N+](C)(C)CC3)OCO2 (stereo not shown) [B0001] | 128.2 | 28.0 | 202.3 |  |  |  |  |  |  |  |
| COc1ccc(CCCCC2c3c(cc4c(c3OC)OCO4)CC[N+]2(C)C)cc1 (stereo not shown) [B0056] | 174.7 | 41.8 | 288.8 |  |  |  |  |  |  |  |
| COc1ccc(CCC(=O)CC2c3c(cc4c(c3OC)OCO4)CCN2C)cc1 (stereo not shown) [B0047] | 187.8 | 68.4 | 235.6 |  |  |  |  |  |  |  |

Source: patent US20100280061A1, “NOVEL ANALGESIC THAT BINDS FILAMIN A” (priority 2009, published 2010)
